Molecules are shown by their SMILES. Several values for one entry are separate records, joined by “and”; a condition that tells them apart may be missing. Equal values may be shown once. Where only a bound is given, the exact number is not on record here.

The values that follow come from PubChem BioAssay AID2252 (Southern Research Specialized Biocontainment Screening …, 2010).

This experiment relates to THP-1 viability, CellTiter-Glo luminescence, 72 h. Briefly: PubChem AID 2252.
The EC50 is the concentration that produces a half-maximal response. For `O=C(CC(=O)c1cc(Cl)ccc1O)c1ccccc1`, the EC50 is 12.3 µM.

Consider `Cc1cccn2c(=O)c(C=O)c(Cl)nc12`, for which the EC50 is 26.8 µM.

`Cc1cc(O)c2c(c1)C(=O)C13C(=C2O)C(=O)[C@H]2[C@@H](O)[C@@H]1[C@H]1[C@H](O)[C@@H]3C(=O)C3=C(O)c4c(O)cc(C)cc4C(=O)C312` (stereo partly drawn): the half-maximal effective concentration (EC50) is 6.36 µM.

With `O=C(N/N=C/c1ccc(O)c(O)c1)C1c2ccccc2Oc2ccccc21`, the EC50 was 42 µM.

Consider `CCc1nnc(NS(=O)(=O)c2ccc(N=Cc3c(C)[nH]n(-c4ccc(C)cc4)c3=O)cc2)s1`, for which the EC50 was 29.3 µM.

As for `Cc1ccc(S(=O)(=O)CCC(=O)c2ccc(O)cc2O)cc1`, the half-maximal effective concentration (EC50) is 16 µM.

For the compound `Cc1ccc(-c2c[n+](CC(=O)Nc3nc(-c4ccccc4)cs3)c3n2CCC3)cc1`, the 50% effective concentration (EC50) is 13.5 µM.

Consider `CN1CCN(C2=Cc3ccccc3Sc3cc(F)c(F)cc32)CC1`, for which the half-maximal effective concentration (EC50) was 14.8 µM.

`COc1cc2c3cc1Oc1cc(ccc1O)C[C@@H]1c4c(cc(OC)c(O)c4Oc4ccc(cc4)C[C@H]3N(C)CC2)CCN1C`: the EC50 is 8.8 µM.

For `CCCCn1c(NS(=O)(=O)c2ccccc2)c(C(=O)OCC)c2nc3ccccc3nc21`, the concentration for a half-maximal effect (EC50) was 20.1 µM.

Consider `Nc1cc(Cl)c2nonc2c1[N+](=O)[O-]`, for which the EC50 was 2.73 µM.

Regarding `CCN(CC)CCCCCCCCOC(=O)c1cc(OC)c(OC)c(OC)c1`, the EC50 was 47.9 µM.

As for `c1ccc2c(NCCc3c[nH]c4ccccc34)c3ccccc3nc2c1`, the half-maximal effective concentration (EC50) was 4.35 µM.

As to `O=[N+]([O-])c1cc(Cl)cc(/C=N/NC(=S)Nc2ccc(S(=O)(=O)N3CCOCC3)cc2)c1O`, the half-maximal effective concentration (EC50) is 27.1 µM.

For `OC1CCCN(Cc2ccc3ccc4cccc5ccc2c3c45)C1` (stereo not drawn), the EC50 is 15.2 µM.

With `CCCCCCCNC(=O)C1(CC2CC(c3cccc(Br)c3)=NO2)CCNCC1` (stereo not drawn), the EC50 was 7 µM.

Regarding `COc1cc(/C=N/NC(=O)c2cncc(Br)c2)cc([N+](=O)[O-])c1O`, the EC50 is 38.1 µM.

As for `Cc1ccc(-c2ccccc2NC(=O)CS(=O)CC(=O)Nc2ccc(C)c(Cl)c2)o1` (stereo not drawn), the concentration giving a half-maximal response (EC50) is 32.2 µM.

Regarding `CC1(C)CC(N2CCN(c3ccccc3)CC2)=CC(=[N+]2CCCC2)C1`, the EC50 was 8.86 µM.

`O=C(Nc1c(Cl)ccc2nsnc12)c1ccc([N+](=O)[O-])o1`: the EC50 was 3.84 µM.

With `Cc1cnc(C(=O)Nc2nnc(C)s2)cn1`, the concentration for a half-maximal effect (EC50) is < 0.1 µM.

For the compound `CN1CCN(C(c2ccc(Cl)cc2)c2cc(Cl)c3cccnc3c2O)CC1` (stereo not drawn), the concentration for a half-maximal effect (EC50) is 3.11 µM.

Take `Cc1cc(C2N=C(N)Nc3nc4ccccc4n32)c(C)n1-c1ccccc1Cl` (stereo not drawn): the EC50 is 11.4 µM.

`CN(C)CC/C=C1/c2ccccc2Sc2ccc(Cl)cc21`: the concentration giving a half-maximal response (EC50) was 10.1 µM.

As to `O=C(NC(=S)NNC(=O)c1ccco1)c1ccc(Br)cc1`, the EC50 is 19.7 µM.

Turning to `CCN(CCCNC(=O)c1cn(CC)c2ccc(S(=O)(=O)N(C)C)cc2c1=O)c1cccc(C)c1`, the EC50 was 34.8 µM.

For the compound `Oc1ccccc1Nc1nc(NCc2ccco2)c2ccccc2n1`, the EC50 is 12.6 µM.

Regarding `O=C(/C=C/c1cccs1)NC(=S)NNC(=O)c1ccccc1O`, the EC50 was 2.79 µM.

Turning to `N=c1c2c(n(Cc3ccc(Cl)c(Cl)c3)c3c1CCC3)CCCC2`, the concentration for a half-maximal effect (EC50) is 4.66 µM.

On to `CN(C)CCCN(C(=O)c1cc2cc([N+](=O)[O-])ccc2s1)c1nc2cc3c(cc2s1)OCCO3`, for which the EC50 is 3.04 µM.

Take `O=C1c2cccc3cccc(c23)C(=O)C1(O)O`: the EC50 was 30.2 µM.

`Cc1cc(C)nc(/N=C(\N)Nc2ccc(SC(F)F)cc2)n1`: the concentration giving a half-maximal response (EC50) is 12.8 µM.

For `COc1ccc(/C=N/Nc2cc(C)nc3ccc(Br)cc23)cc1`, the EC50 is 4.17 µM.

On to `CC(C)N1CSC(=S)N(Cc2ccccc2)C1`, for which the EC50 was 12.8 µM.

Consider `COc1ccc(/C=C/C(=O)NC(=S)NNC(=O)c2cnccn2)cc1`, for which the EC50 is 2.81 µM.

For the compound `Cc1cc(OCC(O)CNC(C)c2ccccc2)ccc1C(C)C` (stereo not drawn), the 50% effective concentration (EC50) is 13.4 µM.

In the case of `CCOC(=O)c1cc(-c2ccc(F)cc2)n(CCC(=O)NC2CCN(Cc3ccccc3)CC2)c1C`, the EC50 is 18.9 µM.

With `NC(=NCCCCCCN=C(N)/N=C(\N)Nc1ccc(Cl)cc1)/N=C(\N)Nc1ccc(Cl)cc1`, the EC50 was 3.5 µM and 1.62 µM and 3.91 µM.

As for `CCCCCC[N+](C)(C)CC/C=C1/c2ccccc2Sc2ccc(Cl)cc21`, the EC50 is 5.39 µM.

`COc1ccc(Nc2nc(NCC3CCCO3)c3ccccc3n2)c(OC)c1` (stereo not drawn): the half-maximal effective concentration (EC50) is 9.34 µM.

As for `CNC[C@@H](Cc1ccccc1)NC[C@@H](CC1CCCCC1)NCCCc1ccccc1`, the half-maximal effective concentration (EC50) was 3.56 µM.

With `CSc1nnc(-c2cccc(NC(=S)NN)c2)o1`, the EC50 was < 0.1 µM.

For the compound `CN(C)CCNC(=O)c1ccc(COc2ccc(Cl)cc2Cl)cc1`, the EC50 was 13.8 µM.

For `CC(/C=N/Nc1nc2ccccc2[nH]1)=C\c1ccccc1`, the half-maximal effective concentration (EC50) was 33.4 µM.

Take `COc1ccccc1Nc1nc(Cl)c(C=O)s1`: the EC50 was 21.1 µM.

`Cc1cc(=O)[nH]c(-n2nc(C)cc2C)n1`: the 50% effective concentration (EC50) was 27.8 µM.

Take `CC(C)[C@@H]1CC[C@@H](C)C[C@H]1OC(=O)C[n+]1cc(-c2ccc(Cl)cc2)n2c1CCCCC2`: the concentration giving a half-maximal response (EC50) was 2.19 µM.

As to `COc1ccc(NS(=O)(=O)c2cc(NC(=O)c3ccc(C)s3)ccc2N2CCOCC2)cc1`, the EC50 was 21.6 µM.

For `O=C(CCc1ccccc1)NNC(=O)c1ccccn1`, the 50% effective concentration (EC50) is 18.2 µM.

In the case of `Cc1ccc(Nc2nc(NCCO)c3ccccc3n2)cc1C`, the EC50 was 3.06 µM.

Turning to `O=C(N/N=C/c1ccc([N+](=O)[O-])o1)c1ccc(O)cc1`, the 50% effective concentration (EC50) is 13.1 µM.

Consider `Cc1cc2nc(C3CCN(CC4COc5ccccc5O4)CC3)[nH]c2cc1C` (stereo not drawn), for which the half-maximal effective concentration (EC50) was 26.8 µM.

With `C#CCOCCOCCOCCNc1nc(N2CCN(C(=O)CCCCCCCCCCNC(=O)[C@H](CCCCN)n3cc(CCO)nn3)CC2)nc(N2CCN(C(=O)CCCCCCCCCCNC(=O)[C@H](CCCN=C(N)N)n3cc(C[C@@H](C)CC)nn3)CC2)n1`, the EC50 was 11.3 µM.

As for `CCCOc1ccc(C(=O)NNC(=S)NC(C)=O)cc1`, the concentration for a half-maximal effect (EC50) was 5.29 µM.

Regarding `CC1CCN(c2nc3ccc(C(=O)NCCCN4CCCCC4)cc3s2)CC1`, the EC50 was 30.7 µM.

On to `Cc1ccc(-c2c[n+](Cc3ccc(Cl)c(Cl)c3)c3n2CCC3)cc1`, for which the EC50 is 4.37 µM.

Take `COc1cc2c(cc1O)[C@H](Cc1ccc(Oc3cc(C[C@@H]4NCCc5cc(OC)c(O)cc54)ccc3O)cc1)NCC2`: the EC50 is 48.3 µM.

In the case of `COc1cc(CNCCc2ccccc2)cc(Cl)c1OCc1ccccc1`, the EC50 was 16.6 µM.

Turning to `COc1ccc(Nc2c3c(nc4ccc(C)cc24)CCC3)cc1`, the concentration for a half-maximal effect (EC50) was 19 µM.

In the case of `Cc1cccc(OCC(O)Cn2c(=N)n(CCN3CCCCC3)c3ccccc32)c1` (stereo not drawn), the concentration giving a half-maximal response (EC50) was 16.1 µM.

Turning to `CC1CCN(CC(CS(=O)(=O)c2ccc([N+](=O)[O-])cc2)N2CCC(C)CC2)CC1` (stereo not drawn), the half-maximal effective concentration (EC50) is 14.6 µM.

Regarding `O=C(Cc1ccccc1)NNC(=S)NC(=O)c1cccs1`, the EC50 was 17.5 µM.

For `COc1cc(CNCCc2c[nH]c3ccccc23)ccc1OCc1ccccc1F`, the EC50 is 13.1 µM.

Consider `Nc1nc(Nc2ccccc2)nc2ccccc12`, for which the EC50 was 3.32 µM.

In the case of `Cc1nc(NC2=NCN(CCCN3CCOCC3)CN2)nc2c(C)cccc12`, the concentration giving a half-maximal response (EC50) was 13.9 µM.

Take `COc1ccc(CNC(=O)CCC(=O)N2C[C@H]3C[C@H](C2)c2cccc(=O)n2C3)cc1`: the EC50 is < 0.1 µM.

`CCCOc1ccc(C(=O)NNC(=S)NC(=O)c2ccco2)cc1`: the EC50 is 16.8 µM.

Consider `CC(C(=O)c1ccc(-c2ccccc2)cc1)[n+]1cccc(NC(=O)c2ccccc2)c1` (stereo not drawn), for which the half-maximal effective concentration (EC50) was 17.7 µM.

As to `COc1ccc(Nc2c3ccccc3nc3ccccc23)cc1`, the EC50 was 8.99 µM.

As for `Clc1ccc(-c2cc(C3CCNCC3)[nH]n2)c(Cl)c1`, the EC50 was 24.3 µM.

Consider `Nc1cc2c3c(cccc3c1)C(=O)N(CCN1CCCC1)C2=O`, for which the concentration for a half-maximal effect (EC50) is 11.3 µM.

Turning to `Cc1cccc(NC2=NC3(CCCCC3)N=C(N)N2)c1`, the EC50 was 34.2 µM.

As to `CCN(CC(O)COc1ccc(OCC(O)CN(CC)C2CCCCC2)cc1)C1CCCCC1` (stereo not drawn), the EC50 was 37.4 µM.

With `CN1CCN(/N=C/c2c3ccccc3c(Cl)c3ccccc23)CC1`, the EC50 is 13.1 µM.

Turning to `Cc1ccc(-c2cc(-c3ccc(C)cc3)[n+](-c3ccccc3)c(-c3ccc(C)cc3)c2)cc1`, the 50% effective concentration (EC50) was 0.49 µM.

As for `Oc1c(C(Nc2ccccn2)c2cccnc2)cc(Cl)c2cccnc12` (stereo not drawn), the EC50 was 6.1 µM.

On to `O=C(Nc1nnc(C2COc3ccccc3O2)o1)c1ccc(F)cc1` (stereo not drawn), for which the concentration for a half-maximal effect (EC50) was 16.8 µM.

Turning to `O=C(CCl)Nc1nccs1`, the concentration for a half-maximal effect (EC50) is 14.4 µM.

As to `CCCCOc1ccc(C(=O)OC2CC(C)N(C)CC2C)cc1` (stereo not drawn), the EC50 was 30.7 µM.

Turning to `NC1=NC[C@H](c2ccccc2)N1CCCCC1CCCCC1`, the EC50 was 6.36 µM.

On to `CCN(CC)CCSc1nnc2c3ccccc3n(Cc3ccccc3)c2n1`, for which the half-maximal effective concentration (EC50) was 26.3 µM.

Consider `O=C1c2ccccc2C(=O)N1CCCP(=O)(O)CCc1ccccc1`, for which the EC50 was < 0.1 µM.

Take `O=C(/C=C/c1ccccc1)c1ccc(NC2=NCCCS2)cc1`: the EC50 was 27.4 µM.

As to `CCCC(=O)c1c(NC)cc(C)oc1=O`, the EC50 was 15.9 µM.

With `CC1=NN(c2nc3ccccc3[nH]2)C(=O)C1Cc1ccccc1` (stereo not drawn), the EC50 is 1.85 µM.

In the case of `CCCCCOc1ccc(CSC(=N)N)cc1[N+](=O)[O-]`, the EC50 was 14 µM.

Take `COc1ccc(C(=O)NC(=S)NNC(=O)c2cccc(C)c2)cc1`: the EC50 is 18.2 µM.

Take `O=C1c2ccc3c4c(ccc(c24)C(=O)N1c1cccc(O)c1)C(=O)N(c1cccc(O)c1)C3=O`: the EC50 was 2.74 µM.

As for `O=C(CSc1nc2ccccc2s1)N/N=C/c1cc([N+](=O)[O-])ccc1O`, the EC50 was 27.5 µM.

Take `CCOc1ccc(Nc2nc(NCC3CCCO3)c3ccccc3n2)cc1` (stereo not drawn): the concentration giving a half-maximal response (EC50) was 2.28 µM.

Regarding `O=C1c2ccccc2NC(c2ccc(-c3ccc(Br)cc3)o2)N1O` (stereo not drawn), the EC50 was 10.6 µM.

As to `C/C(=N\NC(=O)c1ccccc1O)c1cccs1`, the concentration giving a half-maximal response (EC50) is 22.7 µM.

Turning to `N=c1n(CCN2CCCCC2)c2ccccc2n1CC(O)c1ccc(Cl)c(Cl)c1` (stereo not drawn), the EC50 was 4.6 µM.

Turning to `CCCCn1c(=N)n(CC(=O)c2ccc(Br)s2)c2ccccc21`, the 50% effective concentration (EC50) was 5.43 µM.

Consider `O=C(N/N=C/c1cc(Br)ccc1O)c1ccccc1Cl`, for which the EC50 is 1.49 µM.

On to `COc1cccc(/C=N/NC(=O)c2ccoc2C)c1O`, for which the concentration for a half-maximal effect (EC50) is 4.3 µM.

Consider `COc1ccc(CNCCc2ccc(Cl)cc2)cc1OCc1ccccc1`, for which the half-maximal effective concentration (EC50) was 24.5 µM.

As to `CCN1CCN(CCNC(=O)c2ccc(/C=C3/Sc4ccccc4N(Cc4cccc(Cl)c4)C3=O)cc2)CC1`, the EC50 was 8.93 µM.
